For the assay, the system named is Serum-Lipoproteine. Put plainly: Change of serum and lipoprotein-fraction cholesterol in rats after 7 days of oral treatment (ultracentrifuge fractionation, CHOD-PAP cholesterol). The settings on record: Rattus norvegicus, 168 h, oral (gavage), 7 days, male Wistar rats; for change in vivo at 30 mg/kg: 30 mg/kg / Tag; for change in vivo at 10 mg/kg: 10 mg/kg / Tag; for change in vivo at 20 mg/kg: 20 mg/kg / Tag; for change in vivo at 3 mg/kg: 3 mg/kg / Tag. It counts as in vivo, männlichen Wistar-Ratten. The source says:
Die Wirkung der angeführten Verbindungen auf die Serum- Lipoproteine wurde an männlichen Wistar-Ratten untersucht, die 7 Tage per Schlundsonde mit den angeführten in Polyäthylenglykol 400 suspendierten Verbindungen behandelt wurden. Außerdem wurde eine Kontrollgruppe, die nur das Lösungsmittel Polyäthylenglykol 400 erhielt, mitgeführt, sowie bei den meisten Versuchen eine Ratten-Gruppe mit dem Standardhypolipidämikum Clofibrat. Pro Gruppe wurden in der Regel 10 Tiere eingesetzt, denen am Ende der Behandlung das Blut nach leichter Äthernarkose aus dem Orbitalplexus entnommen wurde. Aus dem gewonnenen Ratten-Serum wurden die Serum- Lipoproteine in der präparativen Ultrazentrifuge in folgende Dichteklassen getrennt: VLDL < 1,006; LDL 1,006 bis 1,04; HDL 1,04 bis 1,21
Da nämlich im Gegensatz zum Menschen die Serumlipoproteine der Ratte etwa 4/5 HDL-Cholesterin und nur 1/5 LDL-Cholesterin enthalten und nur sehr geringe Mengen von VLDL (beim Menschen umgekehrt etwa 2/3 LDL und VLDL und nur 1/3 bis 1/4 HDL), macht die Beurteilung einer hypolipidämischen Wir- .kung an der Ratte unbedingt eine Fraktionierung des Ratten-serums in Lipoproteinklassen erforderlich. Eine bloße Erniedrigung des Serum-Total-cholesteringehaltes an der Ratte würde nämlich nur die unerwünschte Erniedrigung der bei der Ratte vorwiegenden antiatherogenen HDL-Klasse anzeigen. Eine erwünschte Erniedrigung von LDL bei gleichzeitiger erwünschter Vermehrung von HDL hätte aber keine (wesentliche) Auswirkung auf den Totalcholesteringehalt des Ratten-Serums.
Aus den in der Ultrazentrifuge isolierten LipoproteinFraktionen wurde das darin enthaltene Cholesterin vollenzymatisch nach der CHOD-PAP-Methode mittels der Testkombination von Boehringer-Mannheim bestimmt und die Werte in µg/ml Serum umgerechnet. In der angeführten Tabelle ist die Veränderung des Lipoprotein-Cholesterins in der behandelten Gruppe gegenüber einer unter gleichen Bedingungen mitgeführten Kontrollgruppe angegeben.
Veränderung in % der Lipoproteine im Ratten-Serum nach siebentägiger oraler Applikation der Verbindungen

The mark [1] stands for this setting: read-out: Cholesterolveränderung in %, bezogen auf die Kontrollgruppe in den Serum-Lipoprotein-Fraktionen HDL.
The mark [2] stands for this setting: read-out: Cholesterolveränderung in %, bezogen auf die Kontrollgruppe in den Serum-Lipoprotein-Fraktionen LDL.
[3] abbreviates: read-out: Cholesterolveränderung in %, bezogen auf die Kontrollgruppe in den Serum-Lipoprotein-Fraktionen VLDL.
Where [4] appears, read: read-out: Cholesterolveränderung in %, bezogen auf die Kontrollgruppe im Serum.

Where two headings read alike, the source gives them in different places.

In the case of `C=CCc1cc(Cn2ccnc2)cc(C)c1OCc1ccc(C(=O)C(C)(C)C)cc1` [Beispiel 1.2], the change in vivo at 30 mg/kg by setting is: under setting [1], 9%; under setting [2], -39%; under setting [3], -31%.
Consider `CC(C)(C)C(=O)c1ccc(COc2c(Cl)cc(Cn3ccnc3)cc2Cl)cc1` [Beispiel 1.6], for which the change in vivo at 10 mg/kg was 7% under setting [1] and -32% under setting [2].
Regarding `C=CCc1cc(Cn2ccnc2)cc(Cl)c1OCc1ccc(C(=O)C(C)(C)C)cc1` [Beispiel 1.7], the change in vivo at 20 mg/kg by setting is: under setting [4], -18%; under setting [1], -7%; under setting [2], -43%.
Take `COc1cc(Cn2ccnc2)cc(OC)c1OCc1ccc(C(=O)C(C)(C)C)cc1` [Beispiel 1.8]: the change in vivo at 20 mg/kg runs as follows: under setting [4], -19%; under setting [1], -4%; under setting [2], -43%; under setting [3], -19%.
Take `Cc1cc(Cn2ccnc2)cc(C)c1OCc1ccc(C(=O)C(C)(C)CCl)cc1` [Beispiel 1.16]: the change in vivo at 3 mg/kg by setting is: under setting [1], -11%; under setting [2], -32%; under setting [3], -32%. Also, the change in vivo at 10 mg/kg by setting is: under setting [4], -15%; under setting [1], -1%; under setting [2], -52%; under setting [3], -24%.
Consider `Cc1cc(Cn2cncn2)cc(Cl)c1OCc1ccc(C(=O)C(C)(C)C)cc1` [Beispiel 1.19], for which the change in vivo at 10 mg/kg by setting is: under setting [4], -11%; under setting [2], -29%; under setting [3], -35%.
For the compound `Cc1cc(Cn2cccn2)cc(C)c1OCc1ccc(C(=O)C(C)(C)C)cc1` [Beispiel 1.21], the change in vivo at 30 mg/kg is 0% under setting [4], -35% under setting [2] and -62% under setting [3].
For `Cc1cc(Cn2ccnc2)cc(C)c1OCc1ccc(C(=O)c2ccc(Cl)cc2)cc1` [Beispiel 1.46], the change in vivo at 10 mg/kg under setting [2] was -35% and the change in vivo at 10 mg/kg under setting [3] is -29%.
As to `Cc1cc(Cn2ccnc2)cc(C)c1OCc1ccc(C2(C(C)(C)C)OCCO2)cc1` [Beispiel 1.52], the change in vivo at 30 mg/kg under setting [2] is -23% and the change in vivo at 30 mg/kg under setting [3] was -36%.
In the case of `C=CCc1cc(Cn2ccnc2)cc(C)c1OCc1ccc(C(O)C(C)(C)C)cc1` (centres unmarked) [Beispiel 2.2], the change in vivo at 30 mg/kg is, setting by setting: under setting [1], 14%; under setting [2], -49%; under setting [3], -34%.
Take `CC(C)c1cc(Cn2ccnc2)cc(C(C)C)c1OCc1ccc(C(O)C(C)(C)C)cc1` (centres unmarked) [Beispiel 2.4]: the change in vivo at 30 mg/kg under setting [4] was -12%, the change in vivo at 30 mg/kg under setting [2] is -38% and the change in vivo at 30 mg/kg under setting [3] is -50%.
